Experimental data taken from the Kinase Knowledgebase extract (Sharma et al. 2016).

Target: MAPK14 (murine)
Experiment: Inhibition of MAPK14 Kinase Activity

SMILES	IC50 [nM]
COc1ccc(C#CC(C)(C)N)cc1C(=O)c1ccc(Nc2ccc(F)cc2F)cc1	14
COc1cc2nc(C)[nH]c2cc1C(=O)c1ccc(Nc2ccc(F)cc2F)cc1	5
COc1ccc(C#CC(C)(C)O)cc1C(=O)c1ccc(Nc2ccc(F)cc2F)nc1	54
O=C(c1ccc(Nc2ccc(F)cc2F)cc1)c1ccccc1Cl	11
O=C(c1ccc(Nc2ccc(F)cc2F)nc1)c1ccccc1Cl	101
CC(C)(N)CCc1ccc(Cl)c(C(=O)c2ccc(Nc3ccc(F)cc3F)nc2)c1	160
COc1ccc(CCC(C)(C)N)cc1C(=O)c1ccc(Nc2ccc(F)cc2F)cc1	113
COc1ccc(C#CC(C)(C)N)cc1C(=O)c1ccc(Nc2ccc(F)cc2F)nc1	8
COc1ccc(CCC(C)(C)O)cc1C(=O)c1ccc(Nc2ccc(F)cc2F)nc1	479
COc1cc2nc(C)[nH]c2cc1C(=O)c1ccc(Nc2ccc(F)cc2F)nc1	21
COc1ccc(CCC2(O)CCN(C)CC2)cc1C(=O)c1ccc(Nc2ccc(F)cc2F)cc1	51
Cc1nc2cc(Cl)c(C(=O)c3ccc(Nc4ccc(F)cc4F)nc3)cc2[nH]1	8
Cc1nc2cc(Cl)c(C(=O)c3ccc(Nc4ccc(F)cc4F)cc3)cc2[nH]1	0.7
CC(C)(N)C#Cc1ccc(Cl)c(C(=O)c2ccc(Nc3ccc(F)cc3F)nc2)c1	19
COc1ccccc1C(=O)c1ccc(Nc2ccc(F)cc2F)cc1	38
COc1ccc(/C=C/C2(O)CCN(C)CC2)cc1C(=O)c1ccc(Nc2ccc(F)cc2F)cc1	1
O=C(c1ccc(Nc2ccc(F)cc2F)nc1)c1cc(Br)ccc1Cl	300
CC(C)(N)C#Cc1ccc(Cl)c(C(=O)c2ccc(Nc3ccc(F)cc3F)cc2)c1	6
